This note sets out measurements from US20200370076A1, “USE OF GALACTURONATE AND OR GALACTURONATE POLYMERS IN CONJUNCTION WITH CARBOHYDRATES TO CONTROL METABOLIC STATE OF ORGANISMS” (Department of the Army, U.S. Army CCDC Army Research …, priority 2019, published 2020).

The test system of assay [1] is Clostridium acetobutylicum. Put plainly: Substrate concentration over time during co-fed fermentation (FIG. 4). The assay is classed as cell-based. The source says:
FIG. 4 is a graph illustrating the uptake of individual oxidized sugars mixed for co-feeding during a fermentation process of Clostridial acetobutylicum; FIG. 4, with reference to FIGS. 1 through 3, is a graph illustrating the concentration of various feedstock during a fermentation process. […] The co-utilization of any of galacturonate and galacturonate polymers with glucose could be used to control the metabolic state of the cells by altering the production of reduced electron carriers such as NADH and/or NADPH. This can allow for fine-tuning production of chemicals. The overall trend of the concentration over time shown in FIG. 4 for galacturonic (gal) acid and glucose (glu) is generally the same; i.e., a gradual decrease in the concentration over time. For example, the concentration of the galacturonic acid is approximately 7.5 at time 0 with a gradual decline in concentration to approximately 4 at approximately 3 hours, followed by a greater decline in concentration resulting in a 0 concentration at approximately 7 hours.

The test system of assay [2] is Clostridium acetobutylicum. Put plainly: Fermentation product formation by Clostridium acetobutylicum grown on different substrates. Format: cell-based. Conditions: organism grown on the named substrate. On the procedure: Experimentally, mixtures of any of galacturonate and galacturonate polymers with glucose are fed to Clostridium acetobutylicum. It was observed that the organism co-utilized the substrates. […] Bacterial culture conditions and strains have been previously published. […] Clostridium acetobutylicum strain ATCC 824 was obtained from ATCC and cultured using company protocol at 37° C. into Clostridial growth medium or CGM containing 0.75 g KH2PO4, 0.75 g K2HPO4, 1.0 g NaCl, 0.017 g MnSO4.5H2O, 0.70 g MgSO4.7H2O, 0.01 g FeSO4.7H2O, 2.0 g […], 5.0 g yeast extract, 2.0 g (NH4)2SO4, and 0.5% final concentration of desired carbohydrate-D-glucose, D-galacturonic acid, D-gluconic acid-at pH 6.5. Active cultures from initial growth stock were added to potato glucose medium to be maintained and stored as a spore solution. Potato glucose medium or PGM contains per liter of H2O-150 g grated fresh potato, 10 g D-glucose, 0.5 g (NH4)SO4, and 3 g CaCO3. The medium was boiled for 1 hour and strained through gauze before sterilization and use for culture. Spore solution was activated for culturing through a heat shock at 80° C. for 9 minutes. Shocked spore solution was added to CGM containing the feed stock of choice and grown to late log of 0.8 at optical density of 600 nm (OD600) at 37° C. Theses cultures were then used to perform antibiotic sensitivity experiments.

As to `O=C[C@H](O)[C@@H](O)[C@@H](O)[C@H](O)C(=O)O` [galacturonate, D-galacturonic acid], the “concentration of feedstock during fermentation” value in assay [1] (FIG. 4, approximately 3 hours) is listed as “approximately 4”; in assay [1] (FIG. 4, approximately 7 hours), 0; in assay [1] (FIG. 4, glucose/galacturonate co-feeding, time 0) it was “approximately 7.5”. The acetate produced entry in assay [2] is “approximately 23.6 mM”. In addition, in assay [2], the butyrate produced entry is “approximately 0.6 mM”.
